From article PMC8160456, “Molecular Mechanism of Citrate Efflux by the Mitochondrial Citrate Transporter CT in Filamentous Fungus Mucor circinelloides WJ11” (Frontiers in Microbiology, 2021)

Target: T1, CT (mitochondrial citrate transporter) (Mucor circinelloides, UniProt S2JNX7)
T1 construct: gene HMPREF1544_02933; complete ct gene, codon-optimised, pET30a(+) NdeI-ATG-ct-Histag-stop-HindIII (C-terminal His tag kept); E. coli BL21(DE3) inclusion bodies, urea-solubilised, Ni column, renatured, reconstituted in liposomes; about 32 kDa; three Mtc domains 10-104, 106-199, 209-296
T1 sequence (S2JNX7 1-301): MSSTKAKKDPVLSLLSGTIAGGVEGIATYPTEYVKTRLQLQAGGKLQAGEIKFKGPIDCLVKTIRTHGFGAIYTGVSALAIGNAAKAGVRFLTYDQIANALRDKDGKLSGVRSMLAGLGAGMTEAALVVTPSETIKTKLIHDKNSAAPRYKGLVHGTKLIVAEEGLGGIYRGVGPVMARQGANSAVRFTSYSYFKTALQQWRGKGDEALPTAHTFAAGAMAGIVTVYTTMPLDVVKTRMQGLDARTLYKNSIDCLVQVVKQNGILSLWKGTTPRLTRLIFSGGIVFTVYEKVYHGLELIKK
Test: inhibition of […]citrate/citrate exchange in CT-reconstituted liposomes
Type: biochemical
Conditions: 20 mM inhibitor; 0.01 mM [14C]citrate outside, 10 mM citrate inside; 2 min

## Cc1ncc(COP(=O)(O)O)c(C=O)c1O [pyridoxal-5'-phosphate]
  inhibition at 20 mM: This activity was inhibited strongly by PLP
